In brackets after ≈: the same amount, converted by molar mass. Activity calls are given as the source filed them. No cut-off for these calls is given here.
Tests used:
[1] = Cytotoxicity against human T24 cells by XTT assay; format: toxicity, cell-based, T-24
[2] = target: Transient receptor potential cation channel subfamily A member 1 (Rattus norvegicus, UniProt Q6RI86); assay: Agonist activity at rat TRPA1 expressed in HEK293 cells; format: cell-based
[3] = target: Transient receptor potential cation channel subfamily A member 1 (Rattus norvegicus) (UniProt Q6RI86); assay: Agonist activity at rat TRPA1 expressed in HEK293E cells assessed as calcium mobilization measured every 2 sec for 150 sec by microplate reader analysis; format: cell-based; conditions: filed as agonist
Chain of Transient receptor potential cation channel subfamily A member 1 (Rattus norvegicus) (Q6RI86 whole entry): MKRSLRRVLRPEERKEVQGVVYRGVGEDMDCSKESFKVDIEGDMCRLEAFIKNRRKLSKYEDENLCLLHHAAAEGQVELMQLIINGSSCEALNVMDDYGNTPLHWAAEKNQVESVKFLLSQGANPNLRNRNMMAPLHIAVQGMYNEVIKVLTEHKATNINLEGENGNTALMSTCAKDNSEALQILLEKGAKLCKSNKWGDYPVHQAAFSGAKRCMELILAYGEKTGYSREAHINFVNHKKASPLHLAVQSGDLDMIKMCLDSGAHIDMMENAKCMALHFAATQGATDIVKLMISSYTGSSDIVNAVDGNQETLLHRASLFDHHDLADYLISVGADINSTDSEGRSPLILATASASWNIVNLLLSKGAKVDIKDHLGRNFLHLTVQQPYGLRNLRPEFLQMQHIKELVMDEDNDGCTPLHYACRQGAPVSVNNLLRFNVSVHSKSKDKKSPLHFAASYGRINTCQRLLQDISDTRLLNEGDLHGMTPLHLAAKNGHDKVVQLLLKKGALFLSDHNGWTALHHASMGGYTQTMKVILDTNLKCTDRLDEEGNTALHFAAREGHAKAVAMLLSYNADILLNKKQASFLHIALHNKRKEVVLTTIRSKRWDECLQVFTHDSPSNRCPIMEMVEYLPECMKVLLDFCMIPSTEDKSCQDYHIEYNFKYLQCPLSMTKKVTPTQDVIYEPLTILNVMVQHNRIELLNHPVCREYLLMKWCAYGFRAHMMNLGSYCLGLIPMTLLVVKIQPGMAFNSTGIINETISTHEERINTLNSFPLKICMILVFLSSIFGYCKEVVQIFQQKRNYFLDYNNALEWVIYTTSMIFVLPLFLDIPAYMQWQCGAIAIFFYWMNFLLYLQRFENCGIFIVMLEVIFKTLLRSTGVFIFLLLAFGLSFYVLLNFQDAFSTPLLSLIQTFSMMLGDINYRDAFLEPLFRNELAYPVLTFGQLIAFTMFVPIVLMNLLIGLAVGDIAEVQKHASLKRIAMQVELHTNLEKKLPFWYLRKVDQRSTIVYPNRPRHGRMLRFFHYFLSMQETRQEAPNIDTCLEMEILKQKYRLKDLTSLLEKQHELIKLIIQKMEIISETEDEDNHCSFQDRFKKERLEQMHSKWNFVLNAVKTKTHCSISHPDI

[4] = target: Transient receptor potential cation channel subfamily A member 1 (Homo sapiens) (UniProt O75762); assay: Agonist activity at human TRPA1 expressed in HEK293E cells assessed as calcium mobilization measured every 2 sec for 150 sec by microplate reader analysis; format: cell-based; conditions: filed as agonist
Chain of Transient receptor potential cation channel subfamily A member 1 (Homo sapiens) (O75762 whole entry): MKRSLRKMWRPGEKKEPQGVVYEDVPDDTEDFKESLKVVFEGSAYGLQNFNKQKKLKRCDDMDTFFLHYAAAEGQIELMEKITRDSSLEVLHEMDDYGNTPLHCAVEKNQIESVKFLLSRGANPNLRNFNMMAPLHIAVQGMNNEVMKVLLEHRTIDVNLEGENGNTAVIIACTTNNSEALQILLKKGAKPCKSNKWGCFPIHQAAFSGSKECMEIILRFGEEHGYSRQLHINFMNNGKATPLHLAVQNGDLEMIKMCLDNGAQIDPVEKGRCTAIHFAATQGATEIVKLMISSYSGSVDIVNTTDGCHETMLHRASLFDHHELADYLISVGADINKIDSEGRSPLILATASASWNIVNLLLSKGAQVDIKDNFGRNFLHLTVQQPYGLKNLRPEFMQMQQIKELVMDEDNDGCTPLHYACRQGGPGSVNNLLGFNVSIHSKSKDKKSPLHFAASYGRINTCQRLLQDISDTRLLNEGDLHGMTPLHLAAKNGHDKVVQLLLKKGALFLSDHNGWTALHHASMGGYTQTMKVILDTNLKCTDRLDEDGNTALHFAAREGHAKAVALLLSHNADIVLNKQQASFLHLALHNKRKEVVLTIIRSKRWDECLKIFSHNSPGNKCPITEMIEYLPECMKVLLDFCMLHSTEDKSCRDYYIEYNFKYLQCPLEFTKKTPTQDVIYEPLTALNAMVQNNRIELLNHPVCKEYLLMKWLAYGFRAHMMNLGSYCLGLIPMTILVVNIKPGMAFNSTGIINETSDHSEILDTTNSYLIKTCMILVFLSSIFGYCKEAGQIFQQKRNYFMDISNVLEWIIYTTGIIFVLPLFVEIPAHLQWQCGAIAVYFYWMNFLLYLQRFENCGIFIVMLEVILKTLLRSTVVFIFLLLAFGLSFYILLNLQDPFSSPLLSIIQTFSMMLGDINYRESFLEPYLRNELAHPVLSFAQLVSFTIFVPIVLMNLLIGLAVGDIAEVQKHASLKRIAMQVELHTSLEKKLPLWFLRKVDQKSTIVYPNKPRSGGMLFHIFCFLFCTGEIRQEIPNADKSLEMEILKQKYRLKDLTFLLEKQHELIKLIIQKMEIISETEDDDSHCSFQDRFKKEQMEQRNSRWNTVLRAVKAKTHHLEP

Chain of Transient receptor potential cation channel subfamily A member 1 (Q6RI86 whole entry): as the sequence (Q6RI86 whole entry) above

| SMILES | IC50 [1] [µg/mL] | EC50 [2] [nM] | Activity [3] | Activity [4] |
| --- | --- | --- | --- | --- |
| CCCCCc1cc(O)c2c(c1)OC(C)(C)[C@@H]1CCC(C)=C[C@@H]21 [DRONABINOL] | 13 (≈ 41.5 µM) |  |  |  |
| CCCCCc1cc(O)c2c(c1)OC(C)(CCC=C(C)C)C=C2 (racemic) [CANNABICHROMENE] | 13 (≈ 41.5 µM) | 90 |  |  |
| CCCCCc1cc(O)c2c(c1)O[C@](C)(CCC=C(C)C)C=C2 |  |  | Active | Active |
| CCCCCc1cc(O)c2c(c1)O[C@@](C)(CCC=C(C)C)C=C2 |  |  | Active | Active |

Source: ChEMBL document CHEMBL5357003, “A Simple Chiral 1H NMR Method for the Discrimination of (R)- and (S)-Cannabichromene in Complex Natural Mixtures and Their Effects on TRPA1 Activity” (J Nat Prod, 2024)
